# Measurements published in ChEMBL document CHEMBL1201862, “PubChem BioAssay data set” (2004).
#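 Exposure lasted 48 hours, with cells grown in 96-well plates and compounds tested at five concentrations. GI50 is the concentration that inhibits growth by half.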 Activity calls are given as the source filed them. Cut-off read from the data, not from the text of the source: active = GI50 up to about 1.1 µM and inactive = higher.
# Legend:
# Experiment in all cases: DTP human tumour cell line panel, 48 h
# 786-0 = test system: 786-0
# A498 = test system: A498
# A549 = test system: A549
# ACHN = test system: ACHN
# CAKI-1 = test system: CAKI-1
# CCRF-CEM = test system: CCRF-CEM
# COLO 205 = test system: COLO 205
# DLD-1 = test system: DLD-1
# DMS-114 = test system: DMS-114
# DMS-273 = test system: DMS-273
# EKVX = test system: EKVX
# HCC 2998 = test system: HCC 2998
# HCT-116 = test system: HCT-116
# HCT-15 = test system: HCT-15
# HL-60 = test system: HL-60
# HOP-18 = test system: HOP-18
# HOP-62 = test system: HOP-62
# HOP-92 = test system: HOP-92
# HT-29 = test system: HT-29
# IGROV-1 = test system: IGROV-1
# K562 = test system: K562
# KM-20L2 = test system: KM-20L2
# LOX IMVI = test system: LOX IMVI
# LXFL 529 = test system: LXFL 529
# M14 = test system: M14
# M19-MEL = test system: M19-MEL
# MOLT-4 = test system: MOLT-4
# Malme-3M = test system: Malme-3M
# NCI-H226 = test system: NCI-H226
# NCI-H23 = test system: NCI-H23
# NCI-H522 = test system: NCI-H522
# OVCAR-3 = test system: OVCAR-3
# OVCAR-4 = test system: OVCAR-4
# OVCAR-5 = test system: OVCAR-5
# OVCAR-8 = test system: OVCAR-8
# RXF 631 = test system: RXF 631
# SF-268 = test system: SF-268
# SF-295 = test system: SF-295
# SF-539 = test system: SF-539
# SK-MEL-28 = test system: SK-MEL-28
# SK-MEL-2 = test system: SK-MEL-2
# SK-MEL-5 = test system: SK-MEL-5
# SK-OV-3 = test system: SK-OV-3
# SN12C = test system: SN12C
# SNB-19 = test system: SNB-19
# SNB-75 = test system: SNB-75
# SNB-78 = test system: SNB-78
# SW-620 = test system: SW-620
# TK-10 = test system: TK-10
# U-251 = test system: U-251
# UACC-257 = test system: UACC-257
# UACC-62 = test system: UACC-62
# UO-31 = test system: UO-31
# KM12 = test system: KM12
# NCI-H460 = test system: NCI-H460
# RPMI-8226 = test system: RPMI-8226
# RXF 393 = test system: RXF 393
# SR = test system: SR
# XF498 = test system: XF498
# BT-549 = test system: BT-549
# Hs-578T = test system: Hs-578T
# MCF7 = test system: MCF7
# MDA-MB-231 = test system: MDA-MB-231
# MDA-MB-435 = test system: MDA-MB-435
# MDA-N = test system: MDA-N
# NCI/ADR-RES = test system: NCI/ADR-RES
# PC-3 = test system: PC-3
# T47D = test system: T47D
compound,measurement,setting,value
NNC(=O)N/N=C1/C(=O)N(c2ccc(Cl)c(Cl)c2)C(=O)C(=O)C1c1nc2ccccc2o1 (centres undefined),GI50,786-0,> 100 µM (inactive)
same,GI50,A498,> 100 µM (inactive)
same,GI50,A549,> 100 µM (inactive)
same,GI50,ACHN,> 100 µM (inactive)
same,GI50,CAKI-1,> 100 µM (inactive)
same,GI50,CCRF-CEM,> 100 µM (inactive)
same,GI50,COLO 205,> 100 µM (inactive)
same,GI50,DLD-1,> 100 µM (inactive)
same,GI50,DMS-114,> 100 µM (inactive)
same,GI50,DMS-273,> 100 µM (inactive)
same,GI50,EKVX,45.3 µM (inactive)
same,GI50,HCC 2998,> 100 µM (inactive)
same,GI50,HCT-116,> 100 µM (inactive)
same,GI50,HCT-15,> 100 µM
same,GI50,HL-60,42.9 µM (inactive)
same,GI50,HOP-18,> 100 µM (inactive)
same,GI50,HOP-62,> 100 µM (inactive)
same,GI50,HOP-92,> 100 µM (inactive)
same,GI50,HT-29,> 100 µM (inactive)
same,GI50,IGROV-1,> 100 µM (inactive)
same,GI50,K562,> 100 µM (inactive)
same,GI50,KM-20L2,> 100 µM (inactive)
same,GI50,LOX IMVI,> 100 µM (inactive)
same,GI50,LXFL 529,> 100 µM (inactive)
same,GI50,M14,> 100 µM (inactive)
same,GI50,M19-MEL,> 100 µM (inactive)
same,GI50,MOLT-4,78.9 µM (inactive)
same,GI50,Malme-3M,> 100 µM (inactive)
same,GI50,NCI-H226,> 100 µM (inactive)
same,GI50,NCI-H23,> 100 µM (inactive)
same,GI50,NCI-H522,62.4 µM (inactive)
same,GI50,OVCAR-3,> 100 µM (inactive)
same,GI50,OVCAR-4,> 100 µM (inactive)
same,GI50,OVCAR-5,> 100 µM (inactive)
same,GI50,OVCAR-8,> 100 µM (inactive)
same,GI50,RXF 631,76.4 µM (inactive)
same,GI50,SF-268,> 100 µM (inactive)
same,GI50,SF-295,> 100 µM (inactive)
same,GI50,SF-539,> 100 µM (inactive)
same,GI50,SK-MEL-28,> 100 µM (inactive)
same,GI50,SK-MEL-2,> 100 µM (inactive)
same,GI50,SK-MEL-5,> 100 µM (inactive)
same,GI50,SK-OV-3,> 100 µM (inactive)
same,GI50,SN12C,> 100 µM (inactive)
same,GI50,SNB-19,29.5 µM (inactive)
same,GI50,SNB-75,> 100 µM (inactive)
same,GI50,SNB-78,> 100 µM (inactive)
same,GI50,SW-620,> 100 µM (inactive)
same,GI50,TK-10,> 100 µM (inactive)
same,GI50,U-251,> 100 µM (inactive)
same,GI50,UACC-257,> 100 µM (inactive)
same,GI50,UACC-62,67.1 µM (inactive)
same,GI50,UO-31,> 100 µM (inactive)
CC(=O)CCn1[nH]c(=O)c(Cl)c(Cl)c1=O,GI50,786-0,> 100 µM (inactive)
same,GI50,A498,> 100 µM (inactive)
same,GI50,A549,> 100 µM (inactive)
same,GI50,ACHN,> 100 µM (inactive)
same,GI50,CAKI-1,14.3 µM (inactive)
same,GI50,CCRF-CEM,> 100 µM (inactive)
same,GI50,DLD-1,> 100 µM (inactive)
same,GI50,DMS-114,> 100 µM (inactive)
same,GI50,DMS-273,> 100 µM (inactive)
same,GI50,EKVX,> 100 µM (inactive)
same,GI50,HCC 2998,> 100 µM (inactive)
same,GI50,HCT-116,> 100 µM (inactive)
same,GI50,HCT-15,> 100 µM
same,GI50,HL-60,> 100 µM (inactive)
same,GI50,HOP-18,> 100 µM (inactive)
same,GI50,HOP-62,> 100 µM (inactive)
same,GI50,HOP-92,> 100 µM (inactive)
same,GI50,HT-29,> 100 µM (inactive)
same,GI50,IGROV-1,> 100 µM (inactive)
same,GI50,K562,> 100 µM (inactive)
same,GI50,KM-20L2,> 100 µM (inactive)
same,GI50,KM12,> 100 µM (inactive)
same,GI50,LOX IMVI,> 100 µM (inactive)
same,GI50,LXFL 529,> 100 µM (inactive)
same,GI50,M14,> 100 µM (inactive)
same,GI50,M19-MEL,> 100 µM (inactive)
same,GI50,MOLT-4,> 100 µM (inactive)
same,GI50,Malme-3M,> 100 µM (inactive)
same,GI50,NCI-H226,> 100 µM (inactive)
same,GI50,NCI-H23,> 100 µM (inactive)
same,GI50,NCI-H460,> 100 µM (inactive)
same,GI50,OVCAR-3,> 100 µM (inactive)
same,GI50,OVCAR-4,> 100 µM (inactive)
same,GI50,OVCAR-5,> 100 µM (inactive)
same,GI50,OVCAR-8,> 100 µM (inactive)
same,GI50,RPMI-8226,> 100 µM (inactive)
same,GI50,RXF 393,> 100 µM (inactive)
same,GI50,SF-268,> 100 µM (inactive)
same,GI50,SF-295,> 100 µM (inactive)
same,GI50,SF-539,> 100 µM (inactive)
same,GI50,SK-MEL-28,> 100 µM (inactive)
same,GI50,SK-MEL-2,> 100 µM (inactive)
same,GI50,SK-MEL-5,> 100 µM (inactive)
same,GI50,SN12C,> 100 µM (inactive)
same,GI50,SNB-19,15.3 µM (inactive)
same,GI50,SNB-75,> 100 µM (inactive)
same,GI50,SNB-78,> 100 µM (inactive)
same,GI50,SR,> 100 µM (inactive)
same,GI50,SW-620,15 µM (inactive)
same,GI50,TK-10,> 100 µM (inactive)
same,GI50,UACC-257,> 100 µM (inactive)
same,GI50,UACC-62,> 100 µM (inactive)
same,GI50,UO-31,> 100 µM (inactive)
same,GI50,XF498,> 100 µM (inactive)
CC(Oc1ccc(Oc2cnc3ccc(Cl)cc3n2)cc1)C(=O)O (centres undefined),GI50,786-0,> 81.1 µM (inactive)
same,GI50,A498,> 62.1 µM (inactive)
same,GI50,A549,81.1 µM (inactive)
same,GI50,ACHN,60 µM (inactive)
same,GI50,BT-549,> 73.1 µM (inactive)
same,GI50,CAKI-1,64.1 µM (inactive)
same,GI50,COLO 205,55.7 µM (inactive)
same,GI50,DLD-1,> 100 µM (inactive)
same,GI50,DMS-114,> 100 µM (inactive)
same,GI50,DMS-273,> 100 µM (inactive)
same,GI50,EKVX,> 99.8 µM (inactive)
same,GI50,HCC 2998,> 87.9 µM (inactive)
same,GI50,HCT-116,58.7 µM (inactive)
same,GI50,HCT-15,> 74.1 µM
same,GI50,HOP-18,> 100 µM (inactive)
same,GI50,HOP-62,> 74.5 µM (inactive)
same,GI50,HT-29,> 95.3 µM (inactive)
same,GI50,Hs-578T,> 62.2 µM (inactive)
same,GI50,IGROV-1,> 64.1 µM (inactive)
same,GI50,K562,> 100 µM (inactive)
same,GI50,KM-20L2,> 100 µM (inactive)
same,GI50,KM12,> 84.5 µM (inactive)
same,GI50,LOX IMVI,51.6 µM (inactive)
same,GI50,LXFL 529,> 100 µM (inactive)
same,GI50,M14,> 91.6 µM (inactive)
same,GI50,M19-MEL,> 100 µM (inactive)
same,GI50,MCF7,26.6 µM (inactive)
same,GI50,MDA-MB-231,> 89.5 µM (inactive)
same,GI50,MDA-MB-435,> 84.5 µM (inactive)
same,GI50,MDA-N,> 86.7 µM (inactive)
same,GI50,MOLT-4,11.7 µM (inactive)
same,GI50,Malme-3M,> 45 µM (inactive)
same,GI50,NCI-H23,> 76.4 µM (inactive)
same,GI50,NCI-H460,19.1 µM (inactive)
same,GI50,NCI-H522,29.5 µM (inactive)
same,GI50,NCI/ADR-RES,> 95.3 µM (inactive)
same,GI50,OVCAR-3,> 84.5 µM (inactive)
same,GI50,OVCAR-4,> 92.5 µM (inactive)
same,GI50,OVCAR-8,> 80.5 µM (inactive)
same,GI50,PC-3,> 100 µM (inactive)
same,GI50,RPMI-8226,> 73.6 µM (inactive)
same,GI50,RXF 393,> 81.8 µM (inactive)
same,GI50,SF-268,> 100 µM (inactive)
same,GI50,SF-295,> 89.9 µM (inactive)
same,GI50,SF-539,> 65.2 µM (inactive)
same,GI50,SK-MEL-28,> 76.7 µM (inactive)
same,GI50,SK-MEL-2,> 88.5 µM (inactive)
same,GI50,SK-MEL-5,72.3 µM (inactive)
same,GI50,SK-OV-3,> 100 µM (inactive)
same,GI50,SN12C,> 100 µM (inactive)
same,GI50,SNB-19,> 62.1 µM (inactive)
same,GI50,SNB-75,84.5 µM (inactive)
same,GI50,SNB-78,> 100 µM (inactive)
same,GI50,SR,30.1 µM (inactive)
same,GI50,SW-620,> 91.6 µM (inactive)
same,GI50,T47D,84.1 µM (inactive)
same,GI50,TK-10,> 95.9 µM (inactive)
same,GI50,U-251,> 63.7 µM (inactive)
same,GI50,UACC-257,> 86.3 µM (inactive)
same,GI50,UACC-62,65.3 µM (inactive)
same,GI50,UO-31,72.1 µM (inactive)
same,GI50,XF498,> 100 µM (inactive)
